Results: the supplement of paper PMC5908809

Assays:
[1] = tested on: normal primary NK cells, pool 3 (3 donors) (IL-2 2.5 ng/mL); test: drug sensitivity score (DSS) (DSS units); higher = more sensitive; extreme values may be limits of the assay; conditions: 72 h
SNK-6 (IL-2 2.5 ng/mL) [2] = test: as above; conditions: 72 h
[3] = tested on: normal primary NK cells, pool 2 (3 donors) (IL-2 2.5 ng/mL); test: as above; conditions: 72 h
NK-92 (IL-2 2.5 ng/mL) [4] = test: as above; conditions: 72 h
DERL-7 (IL-2 2.5 ng/mL) [5] = test: as above; conditions: 72 h
IMC-1 (IL-2 20 ng/mL) [6] = test: as above; conditions: 72 h
NK-YS (IL-2 2.5 ng/mL) [7] = test: as above; conditions: 72 h
NKL (IL-2 2.5 ng/mL) [8] = test: as above; conditions: 72 h
[9] = tested on: normal primary NK cells, pool 1 (3 donors), resting (IL-2 0 ng/mL); test: as above; conditions: 72 h
YT (IL-2 2.5 ng/mL) [10] = test: as above; conditions: 72 h
[11] = tested on: normal primary NK cells, pool 1 (3 donors) (IL-2 2.5 ng/mL); test: as above; conditions: 72 h
KAI3 (IL-2 2.5 ng/mL) [12] = test: as above; conditions: 72 h
KHYG-1 (IL-2 2.5 ng/mL) [13] = test: as above; conditions: 72 h
[14] = tested on: normal NK cells expanded with K562-aAPC; test: percent inhibition of viability; higher = more inhibition; conditions: 72 h, IL-2 2.5 ng/mL
Protocol: (§1)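 Drug sensitivity and resistance testing on K562-aAPC-expanded normal NK cells: 5 concentrations (10-fold steps over a 10,000-fold range), 72 h at 37 °C, viability by CellTiter-Glo normalised to DMSO and benzethonium chloride controls; DSS from the fitted curve.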

[15] = tested on: normal NK cells expanded with K562-aAPC; test: drug sensitivity score (DSS) (DSS units); higher = more sensitive; extreme values may be limits of the assay; conditions: 72 h; IL-2 2.5 ng/mL
Protocol: as §1

[16] = tested on: normal primary NK cells, pool 3 (3 donors) (IL-2 2.5 ng/mL); test: percent inhibition of viability; higher = more inhibition; conditions: 72 h
SNK-6 (IL-2 2.5 ng/mL) [17] = test: as above; conditions: 72 h
[18] = tested on: normal primary NK cells, pool 2 (3 donors) (IL-2 2.5 ng/mL); test: as above; conditions: 72 h
NK-92 (IL-2 2.5 ng/mL) [19] = test: as above; conditions: 72 h
DERL-7 (IL-2 2.5 ng/mL) [20] = test: as above; conditions: 72 h
IMC-1 (IL-2 20 ng/mL) [21] = test: as above; conditions: 72 h
NK-YS (IL-2 2.5 ng/mL) [22] = test: as above; conditions: 72 h
NKL (IL-2 2.5 ng/mL) [23] = test: as above; conditions: 72 h
[24] = tested on: normal primary NK cells, pool 1 (3 donors), resting (IL-2 0 ng/mL); test: as above; conditions: 72 h
YT (IL-2 2.5 ng/mL) [25] = test: as above; conditions: 72 h
[26] = tested on: normal primary NK cells, pool 1 (3 donors) (IL-2 2.5 ng/mL); test: as above; conditions: 72 h
KAI3 (IL-2 2.5 ng/mL) [27] = test: as above; conditions: 72 h
KHYG-1 (IL-2 2.5 ng/mL) [28] = test: as above; conditions: 72 h

COc1cc2c(Oc3ccc(NC(=O)C4(C(=O)Nc5ccc(F)cc5)CC4)cc3F)ccnc2cc1OCCCN1CCOCC1 [Foretinib] (max concentration tested 1000 nM)
Conditions	drug sensitivity score
DERL-7 (IL-2 2.5 ng/mL) [5]	3.35
IMC-1 (IL-2 20 ng/mL) [6]	1.64
KAI3 (IL-2 2.5 ng/mL) [12]	2.98
KHYG-1 (IL-2 2.5 ng/mL) [13]	5.21
NK-92 (IL-2 2.5 ng/mL) [4]	4.04
NK-YS (IL-2 2.5 ng/mL) [7]	5.79
NKL (IL-2 2.5 ng/mL) [8]	5
SNK-6 (IL-2 2.5 ng/mL) [2]	2.27
YT (IL-2 2.5 ng/mL) [10]	3.73
[1]	0.32
[3]	0
[9]	4.1
[11]	1.19
[15]	5.37

percent inhibition of viability [%]
Conditions	0.1 nM	1 nM	10 nM	100 nM	1000 nM
DERL-7 (IL-2 2.5 ng/mL) [20]	3.24	-0.68	2.22	-8.07	70.8
IMC-1 (IL-2 20 ng/mL) [21]	-6.29	-10.2	-1.31	3.45	27.1
KAI3 (IL-2 2.5 ng/mL) [27]	3.99	-0.1	0.67	11.6	31.7
KHYG-1 (IL-2 2.5 ng/mL) [28]	1.36	-8.14	-3.69	18.4	49.9
NK-92 (IL-2 2.5 ng/mL) [19]	-17.3	-12.3	-5.79	19.9	34.9
NK-YS (IL-2 2.5 ng/mL) [22]	-1.72	-7.82	-1.95	11.5	70.2
NKL (IL-2 2.5 ng/mL) [23]	-12.1	-16.5	-5.45	16.3	49.9
SNK-6 (IL-2 2.5 ng/mL) [17]	-1.08	-15.3	-7.01	-4.86	49.9
YT (IL-2 2.5 ng/mL) [25]	-1.93	-8.62	-2.43	13.9	37.3
[14]	-5.4	-5.19	-3.74	12.6	61
[16]	-8.78	-7.33	8.91	6.17	10.7
[18]	-11.2	-4.47	3.97	-2.36	-2.41
[24]	-4.45	1.67	17.2	10.1	18.4
[26]	3.18	-0.67	9.57	11.1	15.9

CNC(=O)c1nn(C)c2c1C(C)(C)Cc1cnc(Nc3ccc(N4CCN(C)CC4)cc3)nc1-2 [Milciclib] (max concentration tested 10000 nM)
Conditions	drug sensitivity score
DERL-7 (IL-2 2.5 ng/mL) [5]	13.6
IMC-1 (IL-2 20 ng/mL) [6]	5.2
KAI3 (IL-2 2.5 ng/mL) [12]	10.3
KHYG-1 (IL-2 2.5 ng/mL) [13]	18.2
NK-92 (IL-2 2.5 ng/mL) [4]	10.8
NK-YS (IL-2 2.5 ng/mL) [7]	10.9
NKL (IL-2 2.5 ng/mL) [8]	10.7
SNK-6 (IL-2 2.5 ng/mL) [2]	8.04
YT (IL-2 2.5 ng/mL) [10]	8.93
[1]	9.53
[3]	12.2
[9]	13.5
[11]	10.6
[15]	12.8

percent inhibition of viability [%]
Conditions	1 nM	10 nM	100 nM	1000 nM	10000 nM
DERL-7 (IL-2 2.5 ng/mL) [20]	3.27	-10.3	4.85	67.1	98.4
IMC-1 (IL-2 20 ng/mL) [21]	-3.68	-8.88	-4.95	-5.54	101
KAI3 (IL-2 2.5 ng/mL) [27]	2.07	-4.15	13.3	40	103
KHYG-1 (IL-2 2.5 ng/mL) [28]	0.72	0.82	16.2	88.3	108
NK-92 (IL-2 2.5 ng/mL) [19]	-4.06	-2.4	1.56	39	101
NK-YS (IL-2 2.5 ng/mL) [22]	-3.1	-3.45	7.23	40.2	103
NKL (IL-2 2.5 ng/mL) [23]	-13.6	-18.8	-12.2	37.9	106
SNK-6 (IL-2 2.5 ng/mL) [17]	2.94	-5.15	-12.8	17.8	93.1
YT (IL-2 2.5 ng/mL) [25]	1.63	0.13	-0.36	21	106
[14]	4.02	-0.67	11	58	101
[16]	-13.5	-12.3	-7.15	27.3	98.8
[18]	-6.1	-7.12	7.61	55.9	96.4
[24]	-2.66	2.94	14.9	61.7	88.7
[26]	-4.67	-0.64	-2.17	41.2	94.1
